Data as given in patent publication US7812021B2, “Pyrrolidine aryl-ether as NK3 receptor antagonists” (Hoffmann-La Roche Inc., priority 2007, dated 2010).

Experiments:
[1] = phase II trial, cited from earlier work
[2] = molecular target: T1, recombinant human NK3 receptor (Homo sapiens, UniProt P29371); assay: [3H]SR142801 competition binding assay; conditions: membranes from HEK293 cells transiently expressing recombinant human NK3 receptor; [3H]SR142801 radioligand; Ki by Cheng-Prussoff
T1 construct: expressed in transfected cells; host or cells: HEK293 cells, transient expression; membranes
T1 sequence (P29371 1-465): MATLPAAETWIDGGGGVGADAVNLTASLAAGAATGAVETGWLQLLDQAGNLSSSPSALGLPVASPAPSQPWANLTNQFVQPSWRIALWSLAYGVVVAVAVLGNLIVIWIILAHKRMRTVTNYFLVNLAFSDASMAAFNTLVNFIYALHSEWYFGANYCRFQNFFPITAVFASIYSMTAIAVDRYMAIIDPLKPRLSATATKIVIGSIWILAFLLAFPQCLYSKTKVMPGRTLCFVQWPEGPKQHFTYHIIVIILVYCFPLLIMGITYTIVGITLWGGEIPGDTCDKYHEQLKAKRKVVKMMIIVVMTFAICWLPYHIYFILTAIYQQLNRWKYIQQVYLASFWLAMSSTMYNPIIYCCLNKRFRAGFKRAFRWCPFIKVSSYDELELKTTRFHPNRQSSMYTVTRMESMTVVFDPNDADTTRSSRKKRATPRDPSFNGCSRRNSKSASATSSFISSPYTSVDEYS
Procedure: [^3H]SR142801 Competition Binding Assay
hNK3 receptor binding experiment were performed using [^3H]SR142801 (Catalog No. TRK1035, specific activity: 74.0 Ci/mmol, Amersham, GE Healthcare UK limited, Buckinghamshire, UK) and membrane isolated from HEK293 cells transiently expressing recombinant human NK3 receptor. After thawing, the membrane homogenates were centrifuged at 48,000×g for 10 min at 4° C., the pellets were resuspended in the 50 mM Tris-HCl, 4 mM MnCl2, 1 μM phosphoramidon, 0.1% BSA binding buffer at pH 7.4 to a final assay concentration of 5 μg protein/well. For inhibition experiments, membranes were incubated with [^3H]SR142801 at a concentration equal to KD value of radioligand and 10 concentrations of the inhibitory compound (0.0003-10 μM) (in a total reaction volume of 500 μl) for 75 min at room temperature (RT). At the end of the incubation, membranes were filtered onto unit filter (96-well white microplate with bonded GF/C filter preincubated 1 h in 0.3% PEI+0.3% BSA, Packard BioScience, Meriden, Conn.) with a Filtermate 196 harvester (Packard BioScience) and washed 4 times with ice-cold 50 mM Tris-HCl, pH 7.4 buffer. Nonspecific binding was measured in the presence of 10 μM SB222200 for both radioligands. The radioactivity on the filter was counted (5 min) on a Packard Top-count microplate scintillation counter with quenching correction after addition of 45 μl of microscint 40 (Canberra Packard S. A., Zürich, Switzerland) and shaking for 1 h. Inhibition curves were fitted according to the Hill equation: y=100/(1+(x/IC50)^nH), where nH=slope factor using Excel-fit 4 software (Microsoft). IC50 values were derived from the inhibition curve and the affinity constant (Ki) values were calculated using the Cheng-Prussoff equation Ki=IC50/(1+[L]/KD) where [L] is the concentration of radioligand and KD is its dissociation constant at the receptor, derived from the saturation isotherm. All experiments were performed in duplicate and the mean±standard error (SEM) of the individual Ki values was calculated.

Structure (SMILES)	activity on positive symptoms of schizophrenia ([1]; altered behaviour, delusion, hallucinations, extreme emotions, excited motor activity, incoherent speech)	activity in the treatment of negative symptoms of schizophrenia ([1]; depression, anhedonia, social isolation, memory and attention deficits)	Ki [2] [µM]
CC(=O)N(C)C1(c2ccccc2)CCN(CCC[C@]2(c3ccc(Cl)c(Cl)c3)CCCN(C(=O)c3ccccc3)C2)CC1 [SR 142,801, Osanetant]	active	inactive	
C[C@@H](Oc1ccc(Cl)cn1)[C@@H]1CN(C(=O)N2CCN(CCN(C)C)CC2)C[C@H]1c1ccc(Cl)c(Cl)c1 (racemic) [Example 56, [(3SR,4RS)-3-[(RS)-1-(5-Chloro-pyridin-2-yloxy)-ethyl]-4-(3,4-dichloro-phenyl)-pyrrolidin-1-yl]-[4-(2-dimethylamino-ethyl)-piperazin-1-yl]-methanone]			0.0026
CC(=O)NC1CCN(CC(=O)N2C[C@@H]([C@@H](C)Oc3ccc(C(F)(F)F)cc3)[C@H](c3ccc(Cl)c(Cl)c3)C2)CC1 (racemic) [Example 25, N-[1-(2-{(3RS,4SR)-3-(3,4-Dichloro-phenyl)-4-[(RS)-1-(4-trifluoromethyl-phenoxy)-ethyl]-pyrrolidin-1-yl}-2-oxo-ethyl)-piperidin-4-yl]-acetamide]			0.0597
C[C@@H](Oc1ccc(Cl)cn1)[C@@H]1CN(C(=O)N2CCN3C(=O)CCC3C2)C[C@H]1c1ccc(Cl)c(Cl)c1 (mixture of isomers) [Example 62, 2-[(3SR,4RS)-3-[(RS)-1-(5-Chloro-pyridin-2-yloxy)-ethyl]-4-(3,4-dichloro-phenyl)-pyrrolidine-1-carbonyl]-hexahydro-pyrrolo[1,2-a]pyrazin-6-one]			0.024
CC(=O)NC1(c2ccccc2)CCN(CC(=O)N2C[C@@H]([C@@H](C)Oc3ccc(Cl)cc3)[C@H](c3ccc(Cl)c(Cl)c3)C2)CC1 (racemic) [Example 64, N-(1-{2-[(3SR,4RS)-3-[(RS)-1-(4-Chloro-phenoxy)-ethyl]-4-(3,4-dichloro-phenyl)-pyrrolidin-1-yl]-2-oxo-ethyl}-4-phenyl-piperidin-4-yl)-acetamide]			0.019
C[C@H](Oc1ccc(C(F)(F)F)cc1)[C@@H]1CN(C(=O)N2CCN(S(C)(=O)=O)CC2)C[C@H]1c1ccc(Cl)c(Cl)c1 (racemic) [Example 17, {(3RS,4SR)-3-(3,4-Dichloro-phenyl)-4-[(SR)-1 (4-trifluoromethyl-phenoxy)-ethyl]-pyrrolidin-1-yl}-(4-methanesulfonyl-piperazin-1-yl)-methanone]			0.0468
C[C@H](Oc1ccc(F)cn1)[C@@H]1CN(C(=O)N2CCN(S(C)(=O)=O)CC2)C[C@H]1c1ccc(Cl)c(Cl)c1 (racemic) [Example 57, {(3RS,4SR)-3-(3,4-Dichloro-phenyl)-4-[(SR)-1-(5-fluoro-pyridin-2-yloxy)-ethyl]-pyrrolidin-1-yl}-(4-methanesulfonyl-piperazin-1-yl)-methanone]			0.0647
